Test results: US6558900B2, “Regulation of apoptosis and in vitro model for studies thereof” (Emory University, priority 1996, dated 2003)

System: CPP32
Experiment: Assay for dATP-dependent activation of CPP32 protease (cleavage of in vitro translated 35S-labeled CPP32 in HeLa S-100)
Assay type: biochemical, hamster
Conditions: 1 mM nucleotide, 30° C., 1 hr
Protocol: The samples were subjected to SDS-PAGE and transferred to a nitrocellulose filter. The filter was exposed to film for 16 hours at room temperature. In FIG. 2B, a 50 μl aliquot of HeLa S-100 (250 μg) was incubated with each aliquot of 6 μl hamster liver nuclei at 37° C. for 2 hr in the presence of 1 mM indicated nucleotide. The DNA was isolated, analyzed by 2% agarose gel electrophoresis and visualized by ethidium bromide staining.
To test the nucleotide specificity for activation of CPP32 and DNA fragmentation, HeLa cell S-100 was incubated with in vitro translated, ^35S-labeled CPP32 in the presence of 1 mM of various nucleotides (FIG. 2A).
A PCR fragment encoding amino acids 29-277 of hamster CPP32 [Wang et al. (1996) supra] was cloned into NdeI and BamHI sites of pET 15b vector (Novagen, Madison, Wis.). The resulting fusion protein of six histidines with hamster CPP32 (amino acids 29-277) was translated in a TNT T7 transcription/translation kit (Promega, Madison, Wis.) in the presence of ^35S-methionine according to the manufacturer's instructions. The translated protein was passed through a 1 ml nickel affirmity column (Qiagen, Chatsworth, Calif.) equilibrated with buffer A. After washing the column with 10 ml of buffer A, the translated CPP32 was eluted with buffer A containing 250 mM imidazole. Human SREBP-2 was translated in a TNT SP6 transcription/translation kit as described [Wang et al. (1995) [Hua et al. (1993) Proc. Natl. Acad. Sci. USA 90, 11603-11607]. Full length human PARP cDNA [Chemey et al. (1987) Proc. Natl. Acad. Sci. USA 84, 8370-8374] was cloned into SmaI and EcoRI sites of pBK-CMV vector (Stratagene, La Jolla, Calif.) and translated in a TNT T7 transcription/translation kit [Promega, Madison, Wis.]. The translated SREBP-2 and PARP (200 μl each) were purified by passing each translation mixture through a 10-ml Sephadex G-25 gel-filtration column equilibrated with buffer A. The translated proteins contained within the exclusion volume of the column were collected.
CPP32 was translated and purified as described above. Aliquot of 3 μl of the in vitro translated CPP32 was incubated with the indicated protein fraction, nucleotides, and 1 mM additional MgCl2 at 30° C. for 1 hour in a final volume of 20 μl of buffer A. At the end of the incubation, 7 μl of 4×SDS sample buffer was added to each reaction. After boiling for 3 min, each sample was subjected to a 15% SDS-polyacrylamide gel electrophoresis (SDS-PAGE). The gel was transferred to a nitrocellulose filter which was subsequently exposed to a Kodak X-OMAT AR X-ray film (Eastman Kodak, Rochester, N.Y.) for 16 hr at room temperature.

SMILES: Nc1ncnc2c1ncn2[C@H]1C[C@H](O)[C@@H](COP(=O)(O)OP(=O)(O)OP(=O)(O)O)O1 [dATP, deoxyadenosine-5-triphosphate]
- cleavage of 35S-labeled CPP32 (nucleotide specificity): Cleavage occurred
